Test results from US20170189357A1, “METHODS OF LIMITING MORBIDITY IN HEMOGLOBINOPATHIES” (DUKE UNIVERSITY, priority 2014, published 2017).
Where two headings read alike, the source gives them in different places.

How the values were obtained:
sickle RBCs [1] = details: 20 nM epinephrine, non-activated HUVECs
ERK [2] = details: 20 nM epinephrine; n=19; p<0.05
ERK [3] = test: ERK phosphorylation in sickle RBCs exposed to hypoxia (Western blot of membrane ghosts); format: cell-based, human; details: hypoxia 8% oxygen 2 hours
p60-c-Src = p60-c-Src phosphorylation in SSRBCs (Western blot of membrane ghosts); format: cell-based, human; details: 1 μM inhibitor before 1 μg/ml PTx; p<0.0001
Source text: FIG. 10 is a set of figures showing inhibition of Gai protein increased phosphorylation of p72^syk and p60-c-Src tyrosine kinases in intact SSRBCs. FIG. 10A-FIG. 10G show the kinase expression results for twenty μg of membrane protein ghosts (SSRBC ghosts, n=7, SS1, SS2, SS3, SS4, SS5, SS6 and SS7; and normal RBC ghosts, n=7, AA1, AA2, AA3AA4, AA5, AA6 and AA7) were used per lane. FIG. 10A-FIG. 10D show Western blots and corresponding graphs showing the kinase expression results of protein ghosts which were stained with antibodies against phosphorylated p60-c-Src [p-p60-c-Src (SS1, SS2, SS3, SS4; and AA1, AA2, AA3, AA4)] and p60-c-Src [p60-c-Src (SS1, SS2, SS3, SS4, SS5, SS6, SS7, and AA1, AA2, AA3, AA4, AA5, AA6, AA7)]; and phosphorylated p72^syk [p-Syk (SS1, SS2, SS3, SS4; and AA1, AA2, AA3, AA4)] and p72^syk[Syk (SS1, SS2, SS3, SS4, SS5, SS6, SS7; and AA1, AA2, AA3, AA4, AA5, AA6, AA7)]. Antibody against glycophorin C was used as a loading control. FIG. 10C and FIG. 10D show the quantitative analysis of the data presented as relative kinase expression [SSRBCs (n=7) and AARBCs (n=7)], and as relative kinase phosphorylation [SSRBCs (n=4) and AARBCs (n=4)]. […] Quantitative analysis of the data (normalized according to total kinase expression) is presented as fold change in p60-c-Src phosphorylation (FIG. 10E and FIG. 10F) and Syk phosphorylation (FIG. 10G). […]

SSRBCs = test: SSRBC adhesion to HUVECs after PTx/CTx treatment, with or without tyrosine kinase inhibitors, intermittent flow; format: cell-based, human; details: 1 μM inhibitor before 1 μg/ml PTx
Method: FIG. 9 is a set of figures showing that activation of Gas protein increased SSRBC adhesion to endothelial cells via activation of tyrosine kinases. FIG. 9A is a schematic depiction of GPCR pathways along with inhibitors and stimuli of the kinases of these pathways regulating SSRBC adhesion. FIGS. 9B-E are a set of graphs showing adherence of RBCs which were sham-treated, or treated with Pertussis toxin (PTx) (0.5, 1 or 2 μg/ml) (FIGS. 9B-D), 1 μg/ml Cholera toxin (CTx) (FIG. 9B) or phenylarsine oxide (0.1, 10, 20, 40 and 80 μM) (FIG. 9E), or pretreated with 1 μM PP1, 1 μM PP2 or 1 μM piceatannol prior to treatment with 1 μg/ml PTx (FIG. 9C and FIG. 9D). Treated RBCs were tested for adhesion to HUVECs in intermittent flow conditions at different shear stresses. Data are presented as % adherent RBCs (FIG. 9B) or SSRBCs (FIG. 9C-FIG. 9E) at a shear stress of 2 dynes/cm^2. Each graph is representative of 3 different experiments. Error bars show standard error of the mean (SEM). *: p<0.001 compared to sham-treated RBCs; **: p<0.01 compared to PTx-treated RBCs.
Vaso-occlusion is associated with various types of physiological stress. β2-adrenergic receptors (β2AR) stimulation with catacholamines employs both Gas and &Gai (or Ga0) pathways. We first determined the Ga, Gas and/or Gai, in sickle cell regulating tyrosine kinase activation-mediated sickle cell adhesion to endothelial cells (FIG. 9A). Sickle cells adhered to some degree to endothelial cells under intermittent flow conditions at a shear stress of 2 dynes/cm^2. (FIGS. 9B-D). […] The selective Src-family kinase inhibitors, PP1 and PP2 (FIG. 9A), and the non-receptor tyrosine kinase p72^Syk inhibitor, piceatannol (FIG. 9A), inhibited the effect of PTx on sickle cell adhesion by 67±2.7%, 64±1.7% and 60 ±5.5%, respectively (p<0.01) (FIGS. 9C and 9D).

human normal (AA) RBCs = test: Normal human RBC adhesion in TNFα-pretreated nude mice, intravital microscopy; details: normal human RBCs treated ex vivo
Source text: FIG. 5 is a set of photographs and graphs showing that ERK in sickle RBCs promotes vaso-occlusion in nude mice in vivo. FIG. 5A, FIG. 5B and FIG. 5C are a set of photographs showing nude mice implanted with dorsal skin-fold window chambers after injection with murine TNFα. […] Vessels without adherent cells appear gray, due to the rapidly moving of fluorescence labeled RBCs. […] FIG. 5D is a graph showing quantification of the fluorescence intensity of video frames of vessel and arteriole segments used to quantify adhesion in venules and arterioles of animals occupied by sickle RBCs (n=5 for each treatment). Adhesion of fluorescently labeled sham-treated sickle RBCs (sham-treated SS) and RDEA119-treated sickle RBCs (RDEA119-treated SS) in all vessels and arterioles recorded presented as fluorescence intensity [fluorescence unit (FU)] of adherent sickle RBCs. FIG. 5E-FIG. 5G are graphs showing the values of at least 180 segments of vessels and arterioles analyzed and averaged among groups of animals (n=5) to represent percentage of vessels occupied by adherent sickle RBCs (FIG. 5E); percentage of vessels with normal blood flow, slow blood flow and no blood flow (FIG. 5F), and percentage of normal flowing vessels (FIG. 5G). […]

leukocytes = test: Leukocyte adhesion in transgenic sickle cell mice after TNFα challenge; details: 0.025, 0.05 and 0.1 mg/kg; versus vehicle
sickle cells = test: Hypoxia-induced sickle cell adhesion to microvascular endothelial cells, intermittent flow; format: cell-based, human; details: hypoxia 8% O2 2 h, then RDEA119; shear stress 1-2 dynes/cm^2
Method: Sickle cells were exposed to room air (sham) or hypoxia (H) (8% O2) for 2 h followed by treatment with RDEA119 MEK inhibitor, then washed. SSRBC adhesion to microvascular endothelial cells was tested in intermittent flow condition assays, and results are presented as % adherent SSRBCs at a shear stress of 1-2 dynes/cm^2. […] Error bars show SEM of 3 different experiments.
One of the major pathophysiologic processes in SCD is vasoocclusion in response to hypoxia.

human sickle RBCs = test: Human sickle RBC adhesion and vaso-occlusion in TNFα-pretreated nude mice, intravital microscopy; details: sickle RBCs treated ex vivo
Method: FIG. 5 is a set of photographs and graphs showing that ERK in sickle RBCs promotes vaso-occlusion in nude mice in vivo. FIG. 5A, FIG. 5B and FIG. 5C are a set of photographs showing nude mice implanted with dorsal skin-fold window chambers after injection with murine TNFα. Four hours later, intravital microscopic observations of post-capillary venules and arterioles using 10× and 20× magnifications were conducted through the window chamber immediately after infusion of fluorescently labeled human sickle RBCs (n=5) that were sham-treated (FIG. 5A; panels 1, 2, 3 and 4) or treated with the MEK inhibitor RDEA119 (FIG. 5B panels 1, 2 and 3), or human normal (AA) RBCs (n=3) sham-treated (FIG. 5C; two panels on the left) or RDEA119-treated (FIG. 5C; 2 panels on the right). Vessels without adherent cells appear gray, due to the rapidly moving of fluorescence labeled RBCs. Adhesion of human sickle RBCs in enflamed vessels and vaso-occlusion are indicated with arrows and appear as white spots in the vessels. […] Scale bar=50 μm. FIG. 5D is a graph showing quantification of the fluorescence intensity of video frames of vessel and arteriole segments used to quantify adhesion in venules and arterioles of animals occupied by sickle RBCs (n=5 for each treatment). Adhesion of fluorescently labeled sham-treated sickle RBCs (sham-treated SS) and RDEA119-treated sickle RBCs (RDEA119-treated SS) in all vessels and arterioles recorded presented as fluorescence intensity [fluorescence unit (FU)] of adherent sickle RBCs. FIG. 5E-FIG. 5G are graphs showing the values of at least 180 segments of vessels and arterioles analyzed and averaged among groups of animals (n=5) to represent percentage of vessels occupied by adherent sickle RBCs (FIG. 5E); percentage of vessels with normal blood flow, slow blood flow and no blood flow (FIG. 5F), and percentage of normal flowing vessels (FIG. 5G). Error bars show SEM of 5 different experiments for each treatment condition, *: p<0.001 compared to sham-treated sickle RBCs regardless of the vessel diameter within the ranges specified for D, E and G. […]

murine sickle RBCs = details: for inhibition of murine sickle RBC adhesion: versus vehicle, p<0.0001
neutrophils (PMNs) = details: sickle RBCs treated with 10 μM U0126, then epinephrine; co-incubated with PMNs
sickle RBCs [4] = test: Sickle RBC adhesion to non-activated and TNFα-activated HUVECs, intermittent flow; format: cell-based, human; details: U0126 10 μM; TNFα-activated HUVECs; shear stress 2 dynes/cm^2; p<0.05
human sickle red cell = details: systemic administration; cited from earlier work

## CNC[C@H](O)c1ccc(O)c(O)c1 [Epinephrine, epinephrine]
Sickle RBCs [1]; shear stress 2 dynes/cm^2
  sickle cell adhesion to normal endothelial cells: increased sickle cell adhesion to normal endothelial cells
ERK [2]
  phosphorylation of sickle cell ERK: increased phosphorylation of sickle cell ERK

## O=C1Nc2ccc(I)cc2/C1=C/c1cc(Br)c(O)c(Br)c1 [GW5074]
ERK [3]
  effect of hypoxia on ERK phosphorylation: decreased the effect of hypoxia on ERK phosphorylation

## CC(C)(C)n1nc(-c2ccc(Cl)cc2)c2c(N)ncnc21 [PP2]
p60-c-Src
  PTx-increased p60-c-Src phosphorylation in sickle cells: to levels below baseline phosphorylation
SSRBCs; shear stress 2 dynes/cm^2, p<0.01
  inhibition of the effect of PTx on sickle cell adhesion: 64±1.7%

## COc1cc(F)c(F)c(Nc2ccc(I)cc2F)c1NS(=O)(=O)C1(C[C@H](O)CO)CC1 [RDEA119]
Human normal (AA) RBCs
  adherence of normal human RBCs in enflamed vessels: no real adherence
leukocytes
  time to abrogation of leukocyte adhesion after administration: ≤ 10 min
Sickle cells
  effect of hypoxia on sickle cell adhesion to endothelial cells: almost completely inhibited
Human sickle RBCs; nude mice pretreated with TNFα
  vaso-occlusion by treated sickle cells: no visible vase-occlusion
Human sickle RBCs; nude mice pretreated with TNFα, n=5, p<0.0001
  reduction of SSRBC adhesion compared to sham-treated SSRBCs: 88%
Human sickle RBCs; nude mice, versus 50±5.5% with sham-treated cells
  vessels and arterioles with normal blood flow: 86±3.3%
Murine sickle RBCs; 0.025 mg/kg infused 120 min after TNFα
  inhibition of murine sickle RBC adhesion: 76%
Murine sickle RBCs; 0.05 mg/kg infused 120 min after TNFα
  inhibition of murine sickle RBC adhesion: 99%
Murine sickle RBCs; 0.1 mg/kg infused 120 min after TNFα
  inhibition of murine sickle RBC adhesion: 98%
Murine sickle RBCs; lowest dose 0.025 mg/kg, effect sustained over time
  time to reversal of murine sickle RBC adhesion after drug administration: ≤ 10 min
Murine sickle RBCs; p<0.05 for each RDEA119 dose (0.025, 0.05, 0.1 mg/kg)
  vessels with restored blood flow: 57%

## N#CC(=C(/N)Sc1ccccc1N)/C(C#N)=C(\N)Sc1ccccc1N [U0126]
ERK [3]
  effect of hypoxia on ERK phosphorylation: decreased the effect of hypoxia on ERK phosphorylation
Sickle RBCs [1]; U0126 10 μM
  epinephrine-activated sickle cell adhesion: inhibited activated sickle cell adhesion
Neutrophils (PMNs)
  sickle cell-induced PMN adhesion to endothelial cells: decreased sickle cell-induced PMN adhesion
Sickle RBCs [4]
  sickle cell adhesion to TNFα-activated endothelial cells: reduced sickle cell adhesion

## CC(C)=CCCC(C)=CCCC(C)=CCSc1ccccc1C(=O)O [farnesylthiosalicylic acid]
ERK [3]
  effect of hypoxia on ERK phosphorylation: decreased the effect of hypoxia on ERK phosphorylation

## Oc1cc(O)cc(/C=C/c2ccc(O)c(O)c2)c1 [piceatannol]
SSRBCs; Homo sapiens, HUVEC, shear stress 2 dynes/cm^2, p<0.01, read-out: inhibition of the effect of PTx on sickle cell adhesion
  inhibition at 1 µM: 60 ± 5.5%

## CC(C)NCC(O)COc1cccc2ccccc12 (centres unmarked) [propranolol]
Human sickle red cell
  human sickle red cell adhesion and associated vasoocclusion in mice: inhibited human sickle red cell adhesion
